Laboratory results from patent US20190002429A1, “Derivatives of Xanthone Compounds” (Agency for Science, Technology and Research, priority 2011, published 2019).
“And” between values parts separate entries of the source, which are not always exact repeats. Equal values may be shown once. Read-outs that look alike come from different tables or passages of the source.

Columns and labels:
[1] = test system: MRSA; experiment: MIC99 against MRSA (Table 2-1); format: cell-based, Staphylococcus aureus
[2] = test system: S. aureus; experiment: MIC99 against S. aureus (Table 2-1); format: cell-based, Staphylococcus aureus
[3] = test system: MRSA DM21455; experiment: MIC against MRSA DM21455; format: cell-based, Staphylococcus aureus
[4] = test system: Clinical Staphylococcus aureus DM4400R; experiment: MIC against clinical S. aureus DM4400R; format: cell-based; conditions: Source: Cornea
[5] = test system: MRSA DB57964/04; experiment: MIC against MRSA DB57964/04; format: cell-based, Staphylococcus aureus
[6] = test system: Clinical Staphylococcus aureus DM4299; experiment: MIC against clinical S. aureus DM4299; format: cell-based
[7] = test system: MRSA DM21595; experiment: MIC against MRSA DM21595; format: cell-based, Staphylococcus aureus
[8] = test system: MRSA QC Strain ATCC BAA1026; experiment: MIC against MRSA QC strain ATCC BAA1026; format: cell-based, Staphylococcus aureus
[9] = test system: Staphylococcus aureus ATCC29213; experiment: MIC against S. aureus ATCC29213; format: cell-based
[10] = test system: Staphylococcus aureus ATCC 6538; experiment: MIC against S. aureus ATCC 6538; format: cell-based
[11] = test system: Straphylococcus aureus ATCC 6538P; experiment: MIC against S. aureus ATCC 6538P; format: cell-based, Staphylococcus aureus
[12] = test system: Straphylococcus aureus ATCC 29737; experiment: MIC against S. aureus ATCC 29737; format: cell-based, Staphylococcus aureus
[13] = test system: Straphylococcus aureus ATCC 25923; experiment: MIC against S. aureus ATCC 25923; format: cell-based, Staphylococcus aureus
[14] = test system: Streptococcus faecium ATCC 10541; experiment: MIC against Streptococcus faecium ATCC 10541; format: cell-based
[15] = test system: Pseudomonas aeruginosa ATCC27853; experiment: MIC against Pseudomonas aeruginosa ATCC27853; format: cell-based
[16] = test system: Klebsiella pneumoniae ATCC10031; experiment: MIC against Klebsiella pneumoniae ATCC10031; format: cell-based
[17] = test system: Enterococcus faecalis ATCC 29212; experiment: MIC against Enterococcus faecalis ATCC 29212; format: cell-based
[18] = test system: Staphylococcus aureus ATCC 700699 (VISA); experiment: MIC against S. aureus ATCC 700699 (MRSA-700699, VISA); format: cell-based
[19] = test system: Enterococcus faecalis ATCC 51299 VRE; experiment: MIC against Enterococcus faecalis ATCC 51299 VRE; format: cell-based; conditions: E. faecalis ATCC 51299 VRE; no unit in table (Example 10 MICs in μg/ml)
[20] = test system: Enterococcus faecalis 11: DS6527 (VRE 208/11); experiment: MIC against Enterococcus faecalis DS6527 (VRE 208/11); format: cell-based; conditions: E. faecalis DS6527 (VRE 208/11); no unit in table (Example 10 MICs in μg/ml)
[21] = test system: Staphylococcus aureus 10: DB6506 (MRSA04/10) (VISA); experiment: MIC against S. aureus DB6506 (VISA); format: cell-based; conditions: no unit in table (Example 10 MICs in μg/ml)
[22] = pH value in different media; format: physicochemical
Excerpt: The pH values were obtained using an electronic pH meter.

[23] = test system: MRSA strain DM21455; experiment: Kill curve (time killing) of MRSA; format: cell-based, Staphylococcus aureus; conditions: FIG. 1
[24] = test system: rabbit cornea; conditions: in vivo
Excerpt: The particular model used was a 5 mm diameter corneal epithelial abrasion model. Wound healing was monitored by a slit lamp using flourescein disclosure dye so that the size of the wound could be measured. The compounds were applied topically three times per day.

[25] = Calcein leakage from DOPC:DOPS liposomes; conditions: DOPC:DOPS = 3:1
Experimental: To further investigate antimicrobial action of the active compounds via inner membrane targeting, a calcein leakage study was performed. In brief, liposomes which mimic bacterial membrane (DOPE: […] The lipids were dissolved in methanol/chloroform (1:2, by volume). The solvent was then dried gently using a constant stream of nitrogen gas. Then, the lipid film was placed under vacuum for at least two hours. […] The hydrated vesicles were freeze-thaw (frozen in liquid nitrogen and warmed in water bath) for at least 7 cycles. Extrusion method using mini-extruder (Avanti Polar Lipid Inc.) was used to produce homogeneous large unilamellar vesicles (LUVs). The extrusion was done for at least 10 cycles using a polycarbonate membrane (Whatman, pore size 100 nm) to obtain LUVs with diameter of 100 nm. To separate the calcein encapsulated vesicles from free calcein, gel filtration column Sephadex G-50 was used. The concentrations of eluted liposomes were determined using total phosphorus determination assay. Leakage of calcein from the liposome induced by AM-series compounds could be monitored using fluorescence spectroscopy (Photon Technology International Model 814) at an excitation wavelength of 490 nm and an emission wavelength of 520 nm. […] Those compounds with […] HC50 values have stronger leakage %. […] To further investigate the inner membrane targeting action of AM-series compounds, E. coli lipid extract was used to construct the liposome. […] Therefore, the outer layer of Gram-negative bacteria (LPS) may play important role to impede the AM-series compounds to reach inner membrane. Calcein leakage data strongly support the active compounds are inner membrane targeting.

[26] = test system: Gram-positive bacteria; experiment: Antimicrobial activity against Gram-positive bacteria (statement); format: cell-based
[27] = test system: Mycobacterium tuberculosis
[28] = test system: S. aureus and Enterococcus faecalis; conditions: 4 strains, sub-inhibitory concentrations, FIG. 8
[29] = test system: S. aureus DM4001; experiment: SYTOX green membrane permeabilization assay, S. aureus; conditions: 10 μM
Experimental: S. aureus DM4001 was harvested at early exponential phase and suspended in 40 mM PBS until OD620 of 0.09 was obtained. Then, the bacteria suspension was incubated with 3 μM of SYTOX Green in dark. The mixture was monitored in a stirring cuvette at an excitation wavelength of 504 nm and at an emission wavelength of 523 nm until the fluorescence was stable. Then, 10 μM of AM compounds were added and the changed of fluorescence emissions were monitored.

Q: For “3,6-bis-[4-(diethylamino)butoxy)]-1-hydroxy-7-methoxy-2,8-bis(3-methylbut-2-enyl)-9H-xanthen-9-one [AM-016]”, which “MIC99 MRSA” value [1] is on record?
A: 0.39 µg/mL

Q: What about the “MIC99 S. aureus” value [2] of the same substance?
A: 0.39 µg/mL

Q: And the “Minimum inhibition concentration (MIC)” value ([3]; MRSA DM21455, Source: Eye)?
A: 0.39 μg/ml and 0.59 μM

Q: What about the MIC ([3]; MRSA-21455 (Eye), Example 10, Mueller Hinton broth dilution) of the same substance?
A: 1.56 µg/mL

Q: What about the “Minimum inhibition concentration (MIC)” value [4] of the same substance?
A: 0.78 μg/ml and 1.17 μM

Q: What about the “Minimum inhibition concentration (MIC)” value [5] of the same substance?
A: 0.78 μg/ml and 1.17 μM

Q: And the “Minimum inhibition concentration (MIC)” value [6]?
A: 1.56 μg/ml and 2.35 μM

Q: And the “Minimum inhibition concentration (MIC)” value ([7]; MRSA DM21595, Source: Wound)?
A: 0.78 μg/ml and 1.17 μM

Q: What about the MIC ([7]; MRSA-21595 (Wound), Example 10, Mueller Hinton broth dilution) of the same substance?
A: 0.395 µg/mL

Q: And the “Minimum inhibition concentration (MIC)” value [8]?
A: 3.125 μg/ml and 4.70 μM

Q: What about the “Minimum inhibition concentration (MIC)” value [9] of the same substance?
A: 0.39 μg/ml and 0.59 μM

Q: What about the “Minimum inhibition concentration (MIC)” value [10] of the same substance?
A: 1.56 μg/ml and 2.35 μM

Q: What about the “Minimum inhibition concentration (MIC)” value [11] of the same substance?
A: 0.78 μg/ml and 1.17 μM

Q: And the “Minimum inhibition concentration (MIC)” value [12]?
A: 1.56 μg/ml and 2.35 μM

Q: What about the “Minimum inhibition concentration (MIC)” value [13] of the same substance?
A: 3.125 μg/ml and 4.70 μM

Q: What about the “Minimum inhibition concentration (MIC)” value [14] of the same substance?
A: 0.195 μg/ml and 0.295 μM

Q: And the “Minimum inhibition concentration (MIC)” value [15]?
A: 50 μg/ml and 75.20 μM

Q: And the “Minimum inhibition concentration (MIC)” value [16]?
A: 40 μg/ml and 60.16 μM

Q: And the “Minimum inhibition concentration (MIC)” value [17]?
A: 0.78 μg/ml and 1.17 μM

Q: And the MIC ([18]; MRSA-700699, Example 10, Mueller Hinton broth dilution)?
A: 0.095 µg/mL

Q: And the Minimum inhibitory concentration ([18]; S. aureus ATCC 700699 (VISA), no unit in table (Example 10 MICs in μg/ml))?
A: 0.39

Q: And the Minimum inhibitory concentration [19]?
A: 1.56

Q: And the Minimum inhibitory concentration [20]?
A: 0.098

Q: And the Minimum inhibitory concentration [21]?
A: 0.78

Q: And the pH ([22]; PBS, 50 μg/ml compound)?
A: 6.96 ± 0.01

Q: What about the pH ([22]; PBS, 100 μg/ml compound) of the same substance?
A: 6.97 ± 0.01

Q: And the pH ([22]; Saline, 50 μg/ml compound)?
A: 6.84 ± 0.21

Q: And the pH ([22]; Saline, 100 μg/ml compound)?
A: 6.78 ± 0.05

Q: And the pH ([22]; Water, 50 μg/ml compound)?
A: 6.44 ± 0.27

Q: And the pH ([22]; Water, 70 μg/ml compound)?
A: 6.72 ± 0.23

Q: And the “Time to eliminate 99.9% of MRSA” value [23]?
A: ≤ 20 min

Q: And the “Cytotoxicity to the rabbit eye in corneal wound healing model” value [24]?
A: does not exhibit any cytotoxicity

Q: What about the “Effect on wound healing (percentage wound closing)” value [24] of the same substance?
A: does not delay wound healing

Q: What about the “% Leakage of calcein” value ([25]; compound:lipid ratio 1:2) of the same substance?
A: 88.43%

Q: What about the “% Leakage of calcein” value ([25]; compound:lipid ratio 1:4) of the same substance?
A: 72.76%

Q: And the “% Leakage of calcein” value ([25]; compound:lipid ratio 1:8)?
A: 37.66%

Q: And the “Activity against Gram-positive bacteria” value [26]?
A: active

Q: What about the MIC100 [27] of the same substance?
A: 4 nmol/mL

Q: And the MIC100 ([27]; value in brackets)?
A: 2.66 µg/mL

Q: What about the “Resistance (>4-fold increase in original MIC) in multipassage study” value [28] of the same substance?
A: no evidence of resistance or cross-resistance

Q: And the “SYTOX green staining of bacteria (fluorescence microscopy)” value ([29]; FIG. 14)?
A: Large numbers of stained bacteria

Q: What about the “Membrane permeabilization (SYTOX green fluorescence emission)” value ([29]; fluorescence spectroscopy) of the same substance?
A: could induce membrane permeabilization
